Measurements reported in US20120029196A1, “PURIFICATION 4-AZA-ANDROST-1-ENE-17-OIC ACID FROM 4-AZA-ANDROSTAN-17-OIC ACID” (PHF S.A., priority 2009, published 2012).

Experiment: solubility in solvents at 25° C.
Format: physicochemical
[1] = solvent Toluene, LOD = Limit Of Detection

| solubility in formic acid (comparison in words) (formic acid) | solubility at 25° C. (solvent Acetic Acid) | solubility at 25° C. (solvent Acetone) | solubility at 25° C. (solvent DMF) | solubility at 25° C. (solvent Ethyl acetate) | solubility at 25° C. (solvent Formic Acid) | solubility at 25° C. (solvent MTBE) | solubility at 25° C. (solvent Methanol) | solubility at 25° C. (solvent Methylene chloride) | solubility at 25° C. (solvent Propionic Acid) | solubility at 25° C. [1] | Compound |
| --- | --- | --- | --- | --- | --- | --- | --- | --- | --- | --- | --- |
| higher than Intermediate 1 | 3.69 % w/w | 0.008 % w/w | 0.40 % w/w | 0.003 % w/w | 20.32 % w/w | 0.001 % w/w | 0.16 % w/w | 0.008 % w/w | 3.10 % w/w | <LOD | C[C@]12CC[C@H]3[C@@H](CCC4NC(=O)CC[C@@]43C)[C@@H]1CC[C@@H]2C(=O)O (stereo partly drawn) [Intermediate 2] |
| – | 8.1 % w/w | 0.06 % w/w | 2.4 % w/w | 0.02 % w/w | 7.7 % w/w | 0.009 % w/w | 0.6 % w/w | 0.04 % w/w | 6.6 % w/w | <LOD | C[C@]12CC[C@H]3[C@@H](CCC4NC(=O)C=C[C@@]43C)[C@@H]1CC[C@@H]2C(=O)O (stereo partly drawn) [Intermediate 1] |
